Tests used:
[1] = system: adrenergic receptor alpha 2; assay: CEREP Alpha 2 (non-selective; antagonist radioligand); format: binding; settings: BT13 1 μM; Cat. No. 0011; average of duplicate
[2] = target: T1, TrkB (Rattus norvegicus, UniProt Q63604); assay: TrkB phosphorylation assay in MG87TrkB cells; format: cell-based; settings: BT13 10–100 μM, BDNF positive control
T1 construct: expressed in transfected cells; host or cells: MG87 murine fibroblasts (MG87TrkB)
Experimental: (§1) MG87RET, MG87TrkA, or MG87TrkB were plated on 35 mm tissue culture dishes 1–2 days before the experiment to achieve 90–95% of confluency of the cells at the day of stimulation with tested substances. If necessary, cells were transfected with 4 μg/well of GFRα1-, GFRα3-, or green fluorescent protein (GFP)-expressing plasmid using Lipofectamine 2000 (Invitrogen) for DNA delivery as described by manufacturer. Before the experiment cells were starved in serum-free DMEM containing 15 mM HEPES, pH 7.2 and 1% DMSO for 4 h and stimulated with BT13 or neurotrophic factors. Then cells were washed once with ice-cold PBS containing 1 mM Na3VO4 and 1 mM NaF and lysed on ice in 1 ml per well of RIPA-modified buffer (50 mM Tris-HCl, pH 7.4, 150 mM NaCl, 1 mM EDTA, 1% NP-40, 1% TX-100, 10% glycerol, EDTA-free protease inhibitor cocktail (Roche), 1 mM Na3VO4, 2.5 mg/ml of sodium deoxycholate, 1 mM NaF). Plates were incubated at +4°C on the horizontal shaker for 30 min with vigorous shaking. Afterwards, 80–100 μl aliquot was taken from each well to prepare whole cell lysates. This aliquot was mixed with equal volume of 2x Laemmli loading buffer (4% SDS, 20% glycerol, 10% 2-mercaptoethanol, 0.004% bromphenol blue, 0.125 M Tris HCl, pH 6.8) and boiled for 10 min at 100°C. Remaining cell lysates were used for immunoprecipitation of RET or Trk receptors. […]

[3] = target: neurokinin receptor NK2 (Homo sapiens, UniProt P21452); assay: CEREP NK2 (h) (agonist radioligand); format: binding; settings: read-out: Percentage of inhibition/potentiation from control
[4] = system: Akt and Erk phosphorylation in MG87TrkB; assay: Erk1/2 and Akt phosphorylation assay in MG87TrkB cells; format: cell-based, murine; settings: BT13 10–100 μM, BDNF positive control
Experimental: as §1

[5] = target: T2, opioid receptor delta (DOP) (Mus musculus, UniProt P32300); assay: CEREP Delta (DOP) (agonist effect); format: cell-based; settings: BT13 1 μM, Cat. No. 2568, average of duplicate, read-out: Percentage of inhibition/potentiation from control
T2 construct: purchased CEREP (contract assay) 2568

[6] = target: T3, monoamine oxidase A (MAO-A) (Rattus norvegicus, UniProt P21396); assay: CEREP MAO-A (antagonist radioligand); format: binding; settings: BT13 1 μM; Cat. No. 0443; average of duplicate; read-out: Percentage of inhibition/potentiation from control
T3 construct: purchased CEREP (contract assay) 0443

[7] = target: dopamine receptor D1 (Homo sapiens, UniProt P21728); assay: CEREP D1 (h) (antagonist radioligand); format: binding; settings: BT13 1 μM; Cat. No. 0044; average of duplicate; read-out: Percentage of inhibition/potentiation from control
[8] = target: T4, Protein Tyrosine Phosphatase, PTPRC (CD45) (Homo sapiens, UniProt P08575); assay: CEREP Protein Tyrosine Phosphatase, PTPRC (CD45); format: biochemical; settings: BT13 1 μM; Cat. No. 3956; average of duplicate; read-out: Percentage of inhibition/potentiation from control
T4 construct: purchased CEREP (contract screening, standard company protocols) 3956

[9] = target: T5, TrkA (Rattus norvegicus, UniProt P35739); assay: Luciferase reporter-gene assay, TrkA reporter cells; format: cell-based; settings: TrkA reporter cell line
T5 construct: expressed in transfected cells; host or cells: MG87 murine fibroblasts (MG87TrkA)

[10] = system: Akt and Erk phosphorylation (RET downstream targets); assay: Erk1/2 and Akt phosphorylation assay in MG87RET fibroblasts; format: cell-based, murine; settings: 25–50 μM; in the presence and absence of GFRα3 co-receptor

T5 sequence (P35739 33-799): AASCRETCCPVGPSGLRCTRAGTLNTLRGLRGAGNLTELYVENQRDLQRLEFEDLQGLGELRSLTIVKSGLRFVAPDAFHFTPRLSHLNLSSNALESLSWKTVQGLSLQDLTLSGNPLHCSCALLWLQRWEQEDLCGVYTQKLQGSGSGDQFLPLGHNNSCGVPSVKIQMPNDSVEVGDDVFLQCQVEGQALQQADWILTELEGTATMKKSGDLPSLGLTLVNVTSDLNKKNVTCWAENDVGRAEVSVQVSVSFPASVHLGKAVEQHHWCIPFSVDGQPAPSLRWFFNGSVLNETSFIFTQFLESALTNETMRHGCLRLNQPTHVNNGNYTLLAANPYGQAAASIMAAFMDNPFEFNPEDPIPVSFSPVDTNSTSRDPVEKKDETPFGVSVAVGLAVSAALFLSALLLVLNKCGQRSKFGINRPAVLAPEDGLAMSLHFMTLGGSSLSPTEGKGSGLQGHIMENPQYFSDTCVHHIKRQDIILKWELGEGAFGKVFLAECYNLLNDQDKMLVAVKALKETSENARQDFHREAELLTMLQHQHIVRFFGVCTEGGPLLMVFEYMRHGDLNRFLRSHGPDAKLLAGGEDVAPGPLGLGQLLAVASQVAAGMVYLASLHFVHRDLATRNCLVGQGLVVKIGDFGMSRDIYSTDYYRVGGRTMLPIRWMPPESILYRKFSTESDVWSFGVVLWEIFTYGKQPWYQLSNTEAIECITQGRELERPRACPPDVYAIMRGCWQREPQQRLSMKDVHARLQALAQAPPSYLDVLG
T1 sequence (Q63604 32-821): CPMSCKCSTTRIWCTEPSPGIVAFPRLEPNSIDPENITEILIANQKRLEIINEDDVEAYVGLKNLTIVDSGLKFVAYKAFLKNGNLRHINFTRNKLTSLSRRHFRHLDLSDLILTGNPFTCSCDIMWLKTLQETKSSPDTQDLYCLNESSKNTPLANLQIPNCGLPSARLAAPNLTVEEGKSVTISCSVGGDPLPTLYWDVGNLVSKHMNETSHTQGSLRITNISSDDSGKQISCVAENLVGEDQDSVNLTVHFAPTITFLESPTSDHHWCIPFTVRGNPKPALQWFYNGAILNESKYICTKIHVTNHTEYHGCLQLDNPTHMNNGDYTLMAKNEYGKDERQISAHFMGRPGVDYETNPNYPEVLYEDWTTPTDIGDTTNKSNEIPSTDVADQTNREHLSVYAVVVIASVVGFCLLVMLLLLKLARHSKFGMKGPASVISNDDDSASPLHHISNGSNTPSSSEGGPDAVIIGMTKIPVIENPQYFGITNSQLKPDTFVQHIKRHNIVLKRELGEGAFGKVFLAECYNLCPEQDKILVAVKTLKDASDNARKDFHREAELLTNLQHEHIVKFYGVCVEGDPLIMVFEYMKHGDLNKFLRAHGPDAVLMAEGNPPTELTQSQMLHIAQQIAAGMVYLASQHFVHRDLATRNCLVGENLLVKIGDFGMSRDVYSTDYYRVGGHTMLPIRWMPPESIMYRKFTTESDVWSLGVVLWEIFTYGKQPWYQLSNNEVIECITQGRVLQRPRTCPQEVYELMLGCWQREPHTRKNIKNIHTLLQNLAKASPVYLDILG
T3 sequence (P21396 whole entry): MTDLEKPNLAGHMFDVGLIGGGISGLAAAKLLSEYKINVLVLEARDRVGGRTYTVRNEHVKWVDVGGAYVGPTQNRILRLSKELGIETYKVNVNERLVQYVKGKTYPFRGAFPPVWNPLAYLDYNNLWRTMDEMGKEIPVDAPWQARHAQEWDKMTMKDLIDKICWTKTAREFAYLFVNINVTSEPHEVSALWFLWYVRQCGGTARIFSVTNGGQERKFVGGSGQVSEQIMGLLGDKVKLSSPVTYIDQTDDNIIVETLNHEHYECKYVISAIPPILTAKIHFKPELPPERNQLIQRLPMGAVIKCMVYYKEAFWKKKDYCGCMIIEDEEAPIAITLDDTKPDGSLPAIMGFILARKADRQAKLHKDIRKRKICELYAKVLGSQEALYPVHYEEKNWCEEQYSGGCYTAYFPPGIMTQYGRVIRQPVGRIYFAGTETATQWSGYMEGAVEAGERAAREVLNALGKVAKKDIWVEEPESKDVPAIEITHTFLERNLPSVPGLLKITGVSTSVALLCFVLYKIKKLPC
Sequence of neurokinin receptor NK2 (P21452 whole entry): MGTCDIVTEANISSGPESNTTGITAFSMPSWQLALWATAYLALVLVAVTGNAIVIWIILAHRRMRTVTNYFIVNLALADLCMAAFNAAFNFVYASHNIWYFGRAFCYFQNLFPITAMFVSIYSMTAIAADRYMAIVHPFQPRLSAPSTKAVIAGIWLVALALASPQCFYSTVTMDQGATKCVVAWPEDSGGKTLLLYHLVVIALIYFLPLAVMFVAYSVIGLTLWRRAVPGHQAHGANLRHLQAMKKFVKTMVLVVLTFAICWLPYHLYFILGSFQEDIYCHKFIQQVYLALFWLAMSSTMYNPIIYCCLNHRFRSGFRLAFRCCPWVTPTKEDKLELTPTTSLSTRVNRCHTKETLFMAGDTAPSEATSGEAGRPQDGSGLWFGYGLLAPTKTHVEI
T4 sequence (P08575 26-1306): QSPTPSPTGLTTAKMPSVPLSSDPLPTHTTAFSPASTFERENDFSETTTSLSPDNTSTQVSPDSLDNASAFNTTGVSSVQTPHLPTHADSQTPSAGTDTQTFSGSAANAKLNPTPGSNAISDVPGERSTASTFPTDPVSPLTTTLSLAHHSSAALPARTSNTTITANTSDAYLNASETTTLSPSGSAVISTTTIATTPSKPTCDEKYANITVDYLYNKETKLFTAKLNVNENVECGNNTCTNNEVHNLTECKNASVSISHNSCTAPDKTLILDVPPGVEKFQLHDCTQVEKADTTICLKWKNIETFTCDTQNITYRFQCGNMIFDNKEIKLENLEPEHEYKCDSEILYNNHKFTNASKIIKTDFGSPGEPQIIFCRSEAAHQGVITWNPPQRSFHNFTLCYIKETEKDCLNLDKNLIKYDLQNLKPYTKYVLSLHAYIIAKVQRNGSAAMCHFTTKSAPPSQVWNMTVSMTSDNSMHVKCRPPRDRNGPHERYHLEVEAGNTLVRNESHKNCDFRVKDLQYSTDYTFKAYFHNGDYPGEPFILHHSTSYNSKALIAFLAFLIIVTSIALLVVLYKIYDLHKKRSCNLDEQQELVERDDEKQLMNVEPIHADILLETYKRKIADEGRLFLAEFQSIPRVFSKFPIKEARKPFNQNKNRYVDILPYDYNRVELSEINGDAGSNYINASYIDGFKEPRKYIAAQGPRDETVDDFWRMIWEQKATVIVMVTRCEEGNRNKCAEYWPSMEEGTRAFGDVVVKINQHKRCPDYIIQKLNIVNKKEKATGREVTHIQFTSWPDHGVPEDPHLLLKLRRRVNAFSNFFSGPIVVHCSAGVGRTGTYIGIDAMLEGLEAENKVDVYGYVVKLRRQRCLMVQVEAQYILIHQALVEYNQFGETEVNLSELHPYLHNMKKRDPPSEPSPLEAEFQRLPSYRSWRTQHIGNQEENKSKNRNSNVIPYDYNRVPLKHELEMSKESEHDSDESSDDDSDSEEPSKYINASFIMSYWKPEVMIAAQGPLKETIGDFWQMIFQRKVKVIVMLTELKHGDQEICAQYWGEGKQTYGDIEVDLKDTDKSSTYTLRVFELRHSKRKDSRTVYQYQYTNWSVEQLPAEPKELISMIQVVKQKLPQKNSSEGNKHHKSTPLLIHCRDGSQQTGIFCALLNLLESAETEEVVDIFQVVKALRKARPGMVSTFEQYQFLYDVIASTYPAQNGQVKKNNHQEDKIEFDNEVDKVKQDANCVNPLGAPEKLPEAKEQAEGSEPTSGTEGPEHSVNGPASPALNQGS
T2 sequence (P32300 whole entry): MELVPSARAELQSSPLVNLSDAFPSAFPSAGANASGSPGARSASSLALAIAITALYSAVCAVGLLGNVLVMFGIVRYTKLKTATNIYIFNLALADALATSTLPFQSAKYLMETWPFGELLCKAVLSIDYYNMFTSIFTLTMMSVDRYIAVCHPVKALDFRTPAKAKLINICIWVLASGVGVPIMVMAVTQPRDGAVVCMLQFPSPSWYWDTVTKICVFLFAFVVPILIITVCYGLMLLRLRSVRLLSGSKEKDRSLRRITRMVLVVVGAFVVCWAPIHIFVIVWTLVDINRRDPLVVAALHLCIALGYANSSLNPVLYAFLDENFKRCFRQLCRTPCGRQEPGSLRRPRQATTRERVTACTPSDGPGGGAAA
Sequence of dopamine receptor D1 (P21728 whole entry): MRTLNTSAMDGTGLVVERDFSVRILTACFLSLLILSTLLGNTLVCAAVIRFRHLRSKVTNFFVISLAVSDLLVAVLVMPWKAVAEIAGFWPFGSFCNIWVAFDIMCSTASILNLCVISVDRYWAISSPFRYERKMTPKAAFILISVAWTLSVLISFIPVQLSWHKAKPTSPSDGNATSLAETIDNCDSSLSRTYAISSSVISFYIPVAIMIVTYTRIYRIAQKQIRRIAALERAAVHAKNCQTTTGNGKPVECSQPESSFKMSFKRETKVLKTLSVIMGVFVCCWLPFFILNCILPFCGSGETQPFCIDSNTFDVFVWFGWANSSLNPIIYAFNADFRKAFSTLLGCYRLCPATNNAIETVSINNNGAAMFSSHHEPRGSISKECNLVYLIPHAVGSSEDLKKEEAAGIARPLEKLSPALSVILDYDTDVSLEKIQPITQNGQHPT

For CCN(CC)S(=O)(=O)c1ccc(OC)c(N2CCN(C(=O)c3ccc(F)cc3C(F)(F)F)CC2)c1 [BT13], the “Percentage of inhibition/potentiation from control” value [1] was −6%, the “TrkB phosphorylation, Western blotting” value [2] was “did not produce any detectable increase” and the inhibition at 1 µM [3] was 5%. The “Akt and Erk phosphorylation” value [4] was “no Akt or Erk phosphorylation was observed”, the inhibition at 1 µM [5] was -5.2% and the inhibition at 1 µM [6] was 5%. The inhibition at 1 µM [7] was -17%, the inhibition at 1 µM [8] was -3% and the “activation of luciferase reporter” value [9] was “did not activate luciferase”. For the same compound, the “phosphorylation of RET downstream targets Akt and Erk” value [10] was “elicited phosphorylation”.
